Results reported in US10966426B2, “Herbicidal compositions comprising phenylpyrimidines” (BASF SE, priority 2016, dated 2021).

Key:
Format in all cases: in vivo
Helianthus annuus = assay: greenhouse pre-emergence treatment, HELAN; settings: Helianthus annuus, 504 h, 21 DAT, HELAN
Description: (§1) The culture containers used were plastic pots containing loamy sand with approximately 3.0% of humus as substrate. The seeds of the test plants were sown separately for each species.
(§2) For the pre-emergence treatment, the active compounds, suspended or emulsified in water, were applied directly after sowing by means of finely distributing nozzles. The containers were irrigated gently to promote germination and growth and subsequently covered with transparent plastic hoods until the plants had rooted. This cover caused uniform germination of the test plants unless this was adversely affected by the active compounds.
(§3) Depending on the species, the plants were kept at 10-25° C. and 20-35° C., respectively.
(§4) The test period extended over 2 to 4 weeks. During this time, the plants were tended and their response to the individual treatments was evaluated.
(§5) Evaluation was carried out using a scale from 0 to 100. 100 means no emergence of the plants, or complete destruction of at least the above-ground parts, and 0 means no damage or normal course of growth. A good herbicidal activity is given at values of at least 70, and very good herbicidal activity is given at values of at least 85.
(§6) The respective stated components A and B, and if appropriate, C were formulated as a 10% by weight strength emulsion concentrate and, with addition of the amount of solvent system, introduced into the spray liquor used for applying the active compound. In the examples, the solvent used was water.
(§7) In the examples below, using the method of S. R. Colby (1967) “Calculating synergistic and antagonistic responses of herbicide combinations”, Weeds 15, p. 22ff., the value E, which is expected if the activity of the individual active compounds is only additive, was calculated. E=X+Y−(X·Y/100) where X=effect in percent using herbicide A at an application rate a; • Y=effect in percent using herbicide B at application rate b; • E=expected effect (in %) of herbicide A+herbicide B at application rates a+b.

Alopecurus myosuroides = assay: greenhouse post-emergence treatment, ALOMY; settings: Alopecurus myosuroides, 480 h, 20 DAT, ALOMY, pendimethalin SC 400 g/l solo 125 gai/ha
Procedure: as §1
(§8) To this end, the test plants were either sown directly, and grown in the same containers, or they were first grown separately as seedlings and transplanted into the test containers a few days prior to treatment.
as §3, §4, §5
(§9) In the examples, the solvent used was water.
(§10) In the examples below, using the method of S. R. Colby (1967) “Calculating synergistic and antagonistic responses of herbicide combinations”, Weeds 15, p. […] E=X+Y−(X·Y/100) where X=effect in percent using herbicide A at an application rate a; • Y=effect in percent using herbicide B at application rate b; • E=expected effect (in %) of herbicide A+herbicide B at application rates a+b.

Matricaria chamomilla = assay: greenhouse post-emergence treatment, MATCH; settings: Matricaria chamomilla, sc, 480 h, 20 DAT, MATCH
Procedure: as §1
(§11) For the post-emergence treatment, the test plants were grown to a plant height of from 3 to 15 cm, depending on the plant habit, and only then treated with the active compounds which had been suspended or emulsified in water. To this end, the test plants were either sown directly, and grown in the same containers, or they were first grown separately as seedlings and transplanted into the test containers a few days prior to treatment.
as §3, §4, §5, §6, §7

Avena fatua [1] = assay: greenhouse pre-emergence treatment, AVEFA; settings: Avena fatua, 504 h, 21 DAT, AVEFA, pendimethalin SC 400 g/l solo 125 gai/ha
Description: as §1, §2, §3, §4, §5, §6, §7

Bromus sterilis [2] = assay: greenhouse post-emergence treatment, BROST; settings: Bromus sterilis, sc, 480 h, 20 DAT, BROST
Procedure: as §1, §8, §3, §4, §5, §9, §10

Stellaria media = assay: greenhouse post-emergence treatment, STEME; settings: Stellaria media, sc, 480 h, 20 DAT, STEME, pendimethalin SC 400 g/l solo 500 gai/ha
Procedure: as §1, §11, §3, §4, §5, §6, §7

Avena fatua [3] = assay: greenhouse post-emergence treatment, AVEFA; settings: Avena fatua, sc, 480 h, 20 DAT, AVEFA
Procedure: as §1, §8, §3, §4, §5, §9, §10

Polygonum convolvulus = assay: greenhouse post-emergence treatment, POLCO; settings: Fallopia convolvulus, sc, 480 h, 20 DAT, POLCO
Procedure: as §1, §11, §3, §4, §5, §6, §7

Brachiaria decumbens = assay: greenhouse pre-emergence treatment, BRADC; settings: Urochloa decumbens, 504 h, 21 DAT, BRADC
Description: as §1, §2, §3, §4, §5, §6, §7

Lolium multiflorum = assay: greenhouse post-emergence treatment, LOLMU; settings: Lolium multiflorum, sc, 480 h, 20 DAT, LOLMU, read-out: % activity
Procedure: as §1, §8, §3, §4, §5, §9, §10

Digitaria sanguinalis = assay: greenhouse post-emergence treatment, DIGSA; settings: Digitaria sanguinalis, sc, 480 h, 20 DAT, DIGSA, pendimethalin SC 400 g/l solo 125 gai/ha, read-out: % activity
Procedure: as §1, §8, §3, §4, §5, §9, §10

Ambrosia elatior = assay: greenhouse pre-emergence treatment, AMBEL; settings: Ambrosia artemisiifolia, 504 h, 21 DAT, AMBEL
Description: as §1, §2, §3, §4, §5, §6, §7

Bromus sterilis [4] = assay: greenhouse pre-emergence treatment, BROST; settings: Bromus sterilis, 504 h, 21 DAT, BROST
Description: as §1, §2, §3, §4, §5, §6, §7

Apera spica-venti = assay: greenhouse post-emergence treatment, APESV; settings: solo, SC 400 g/l, APESV, 250 gai/ha, 20 DAT
Procedure: as §1, §11, §3, §4, §5, §6, §7

Setaria viridis = assay: greenhouse post-emergence treatment, SETVI; settings: Setaria viridis, sc, 480 h, 20 DAT, SETVI, pendimethalin SC 400 g/l solo 250 gai/ha, read-out: % activity
Procedure: as §1, §8, §3, §4, §5, §9, §10

[5] = pendimethalin SC 400 g/l solo 125 gai/ha, read-out: % activity
[6] = pendimethalin SC 400 g/l solo 250 gai/ha
[7] = pendimethalin SC 400 g/l solo 500 gai/ha
[8] = pendimethalin SC 400 g/l solo 1000 gai/ha
[9] = pendimethalin SC 400 g/l solo 125 gai/ha

## CCC(CC)Nc1c([N+](=O)[O-])cc(C)c(C)c1[N+](=O)[O-] [pendimethalin]
Helianthus annuus; pendimethalin SC 400 g/l solo 100 gai/ha
  inhibition at 100 g/ha: 10%
Helianthus annuus; [5]
  inhibition at 125 g/ha: 0%
Helianthus annuus; [6]
  inhibition at 250 g/ha: 0%
Helianthus annuus; [7]
  inhibition at 500 g/ha: 10%
Alopecurus myosuroides
  inhibition at 125 g/ha: 20%
Matricaria chamomilla; [7]
  inhibition at 500 g/ha: 0%
Matricaria chamomilla; [8]
  inhibition at 1000 g/ha: 0%
Avena fatua [1]
  inhibition at 125 g/ha: 0%
Bromus sterilis [2]; [9]
  inhibition at 125 g/ha: 0%
Bromus sterilis [2]; [6]
  inhibition at 250 g/ha: 0%
Bromus sterilis [2]; [7]
  inhibition at 500 g/ha: 0%
Bromus sterilis [2]; [8]
  inhibition at 1000 g/ha: 0%
Stellaria media
  inhibition at 500 g/ha: 70%
Avena fatua [3]; [5]
  inhibition at 125 g/ha: 0%
Avena fatua [3]; [6]
  inhibition at 250 g/ha: 0%
Avena fatua [3]; [7]
  inhibition at 500 g/ha: 0%
Avena fatua [3]; [8]
  inhibition at 1000 g/ha: 0%
Polygonum convolvulus; [9]
  inhibition at 125 g/ha: 40%
Polygonum convolvulus; [7]
  inhibition at 500 g/ha: 60%
Brachiaria decumbens; [6]
  % herbicidal activity (weed control, 0-100 scale) at 250 g/ha: 0%
Brachiaria decumbens; [7]
  % herbicidal activity (weed control, 0-100 scale) at 500 g/ha: 0%
Brachiaria decumbens; [8]
  % herbicidal activity (weed control, 0-100 scale) at 1000 g/ha: 0%
Lolium multiflorum; [9]
  inhibition at 125 g/ha: 10%
Lolium multiflorum; [6]
  inhibition at 250 g/ha: 20%
Digitaria sanguinalis
  inhibition at 125 g/ha: 45%
Ambrosia elatior; [6]
  percent weed control (herbicidal activity, 0-100 scale) at 250 g/ha: 0%
Ambrosia elatior; [8]
  percent weed control (herbicidal activity, 0-100 scale) at 1000 g/ha: 0%
Bromus sterilis [4]; pendimethalin SC 400 g/l solo 250 gai/ha, read-out: % activity
  inhibition at 250 g/ha: 0%
Bromus sterilis [4]; [7]
  inhibition at 500 g/ha: 0%
Bromus sterilis [4]; [8]
  inhibition at 1000 g/ha: 10%
Apera spica-venti
  % activity: 0%
Setaria viridis
  inhibition at 250 g/ha: 50%
